“And” between values parts separate entries of the source, which are not always exact repeats. Identical values can stand only once.
Conditions: instrument: DT, single field, calibrated with Agilent tune mix (Agilent)

Row | Structure (SMILES) | collision cross section (N2) ([M-H]-) | collision cross section (N2) ([M+H]+) | also measured
1 | N[C@@H](CS(=O)(=O)O)C(=O)O [L-Cysteic acid] | 120.55 Å² |  | 
2 | COc1cc(C(O)C(=O)O)ccc1O (racemic) [DL-Vanillylmandelic acid] | 140.9 Å² |  | collision cross section (N2) ([M+H-H2O]+): 133.3 Å²
3 | O=P(O)(O)OC[C@H]1O[C@H](OP(=O)(O)O)[C@H](O)[C@@H](O)[C@@H]1O [Alpha-D-Glucose 1,6-bisphosphate] |  |  | collision cross section (N2) ([M+Na-2H]-): 159.11 Å²
4 | CC(C)(CO)[C@@H](O)C(=O)NCCC(=O)O [Pantothenate] |  | 148.1 Å² | 
5 | C[C@]12CCC(=O)C=C1CC[C@@H]1[C@@H]2CC[C@@]2(C)[C@H]1CC[C@]2(O)C(=O)CO [Cortexolone] |  | 187.4 Å² | 
6 | OC[C@H]1O[C@H](O)[C@H](O)[C@@H](O)[C@@H]1O [Alpha-D-Glucose] |  |  | collision cross section (N2) ([M+Na]+): 146.2 Å²
7 | O=P(O)(O)OC[C@H]1OC(O)[C@H](O)[C@@H](O)[C@@H]1O (some centres not stated) [Glucose 6-phosphate] |  |  | collision cross section (N2) ([M+Na]+): 158.1 Å²
8 | C[C@]12CCC(=O)C=C1CC[C@@H]1[C@@H]2CC[C@@]2(C)[C@H]1CC[C@]2(O)C(=O)CO [11-Deoxycortisol] | 183.12 Å² |  | 
9 | O=C(O)C(O)Cc1c[nH]c2ccccc12 (configuration not stated) [Indolelactic acid] | 146.51 Å² | 143.8 Å² | 
10 | C[C@]12CC[C@@H](O)C[C@@H]1CC[C@@H]1[C@@H]2CC[C@]2(C)C(=O)CC[C@@H]12 [Androsterone] |  |  | collision cross section (N2) ([M+H-H2O]+): 166.6 Å²
11 | Nc1ncnc2c1ncn2[C@H]1C[C@H](O)[C@@H](COP(=O)(O)OP(=O)(O)OP(=O)(O)O)O1 [2'-Deoxyadenosine 5'-triphosphate] | 183.78 Å² |  | 
12 | O=C(/C=C/c1ccc(O)c(O)c1)O[C@@H]1C[C@](O)(C(=O)O)C[C@@H](O)[C@H]1O [Chlorogenic acid] |  | 185.1 Å² | collision cross section (N2) ([M+Na-2H]-): 173.79 Å²
13 | CCO[C@@H]1O[C@H](C(=O)O)[C@@H](O)[C@H](O)[C@H]1O [Ethyl glucuronide] | 143.97 Å² |  | 
14 | COc1ccc2[nH]cc(CCN(C)C)c2c1 [5-Methoxydimethyltryptamine] | 153.76 Å² | 151.5 Å² | 
15 | Cn1cnc2c(ncn2[C@@H]2O[C@H](CO)[C@@H](O)[C@H]2O)c1=N [1-Methyladenosine] | 159.21 Å² | 164.2 Å² | 
16 | OC[C@@H](O)[C@@H](O)[C@H](O)[C@@H](O)CO [D-Sorbitol] | 129.64 Å² |  | collision cross section (N2) ([M+Na]+): 142.5 Å²
17 | C=C1CC[C@H](O)C/C1=C/C=C1\CCC[C@]2(C)[C@@H]([C@H](C)/C=C/[C@H](C)C(C)C)CC[C@@H]12 [Ergocalciferol] |  | 202.4 Å² and 203.2 Å² | 
18 | CC(C)C(=O)NCC(=O)O [Isobutyrylglycine] | 132.07 Å² |  | 
19 | C[C@H](CCC(=O)NCCS(=O)(=O)O)[C@H]1CC[C@H]2[C@@H]3CC[C@@H]4C[C@H](O)CC[C@]4(C)[C@H]3C[C@H](O)[C@]12C [Taurodeoxycholic acid] | 204.37 Å² | 204.5 Å² | 
20 | OC[C@H](O)[C@@H](O)[C@H](O)[C@@H](O)CO [L-Iditol] | 129.61 Å² |  | collision cross section (N2) ([M+Na]+): 143 Å²

Row | Structure (SMILES) | collision cross section (N2) ([M-H]-) | collision cross section (N2) ([M+H]+) | also measured
21 | CCCCCCCCCC(=O)O [Capric acid] | 146.87 Å² |  | 
22 | C[C@H](CCC(=O)O)[C@H]1CC[C@H]2[C@@H]3CC[C@@H]4C[C@H](O)CC[C@]4(C)[C@H]3CC[C@]12C [Lithocholic acid] | 199.95 Å² |  | collision cross section (N2) ([M+H-H2O]+): 193.4 Å²
23 | CC(O)(CC(=O)O)CC(=O)O [3-Hydorxy-3-methylglutaric acid] | 123.66 Å² |  | 
24 | C[C@]12CCC(=O)C=C1CC[C@@H]1[C@@H]2CC[C@]2(C)C(=O)CC[C@@H]12 [Androstendione] | 172.77 Å² |  | 
25 | C[C@]12CC[C@@H]3c4ccc(O)cc4CC[C@H]3[C@@H]1CC[C@@H]2O [Beta-Estradiol] | 173.34 Å² |  | 
26 | CCCCCCCCCC(=O)SCCNC(=O)CCNC(=O)[C@H](O)C(C)(C)COP(=O)(O)OP(=O)(O)OC[C@H]1O[C@@H](n2cnc3c(N)ncnc32)[C@H](O)[C@@H]1OP(=O)(O)O [Decanoyl-CoA] | 276 Å² | 277 Å² | 
27 | NC(=O)NCCC(=O)O [3-Ureidopropionate] |  |  | collision cross section (N2) ([M+Na]+): 132.3 Å²
28 | O=C(O)/C=C/c1ccc(O)cc1 [4-Hydroxycinnamic acid] | 129.27 Å² |  | collision cross section (N2) ([M+H-H2O]+): 127 Å²
29 | CC(=O)N[C@@H](CC(=O)O)C(=O)N[C@@H](CCC(=O)O)C(=O)O [N-Acetylaspartylglutamate (NAAG)] |  |  | collision cross section (N2) ([M+Na]+): 166.3 Å²
30 | CCCCCCCC/C=C/CCCCCCCC(=O)O[C@H](COC(=O)CCCCCCCCCCCCCCC)COP(=O)([O-])OCC[N+](C)(C)C [2-Oleoyl-1-palmitoyl-sn-glycero-3-phosphocholine] | 272.17 Å² | 286.7 Å² | 
31 | O=C1CC(=O)NC(=O)N1 [Barbituric acid] | 112.69 Å² |  | 
32 | NC(=O)c1ccc[n+]([C@@H]2O[C@H](COP(=O)([O-])O)[C@@H](O)[C@H]2O)c1 [Nicotinamide ribotide] |  | 165.2 Å² | 
33 | OC1OC[C@@H](O)[C@@H](O)[C@H]1O (stereo partly drawn) [D-Ribose] |  |  | collision cross section (N2) ([M+Na]+): 135.3 Å²
34 | C[C@]12CC[C@@H](O)C[C@@H]1CC[C@@H]1[C@@H]2CC[C@]2(C)C(=O)CC[C@@H]12 [3alpha-Hydroxy-5alpha-androstan-17-one] | 176.71 Å² |  | 
35 | O=P(O)(O)OC1C(OP(=O)(O)O)C(OP(=O)(O)O)C(OP(=O)(O)O)C(OP(=O)(O)O)C1OP(=O)(O)O (configuration not stated) [Myo-inositol hexakisphosphate] | 193.29 Å² |  | 
36 | O=C(O)Cc1cccc(O)c1 [3-Hydroxyphenylacetic acid] |  |  | collision cross section (N2) ([M+Na-2H]-): 135.74 Å²
37 | O=P(O)(O)OC1O[C@H](CO)[C@@H](O)[C@H](O)[C@H]1O (stereo partly drawn) [a-D-Galactose 1-phosphate] | 145.32 Å² |  | collision cross section (N2) ([M+Na]+): 157.5 Å²
38 | C[C@H](O)C(=O)C1=Nc2c([nH]c(N)nc2=O)NC1 [Sepiapterin] |  | 152.8 Å² | collision cross section (N2) ([M-H2O-H]-): 144.47 Å²
39 | NC[C@H](O)CC[C@H](N)C(=O)O [5-Hydroxy-L-lysine] | 131.7 Å² | 135.1 Å² | 
40 | Nc1ccn([C@@H]2O[C@H](COP(=O)(O)OP(=O)(O)O)[C@@H](O)[C@H]2O)c(=O)n1 [CDP] |  | 175.1 Å² | 

Row | Structure (SMILES) | collision cross section (N2) ([M-H]-) | collision cross section (N2) ([M+H]+) | also measured
41 | COC(=O)[C@H](Cc1ccccc1)NC(=O)[C@@H](N)CC(=O)O [Aspartame] | 166.71 Å² | 169.6 Å² | 
42 | Nc1ncnc2c1ncn2[C@@H]1O[C@H](COP(=O)(O)OS(=O)(=O)O)[C@@H](OP(=O)(O)O)[C@H]1O [3'-Phosphoadenosine 5'-phosphosulfate] | 192.76 Å² |  | 
43 | Nc1ncnc2c1ncn2[C@@H]1O[C@H](COP(=O)(O)OP(=O)(O)OP(=O)(O)O)[C@@H](O)[C@H]1O [Adenosine 5'-triphosphate] | 185.74 Å² | 196.4 Å² | 
44 | CC(C)C(=O)SCCNC(=O)CCNC(=O)[C@H](O)C(C)(C)COP(=O)(O)OP(=O)(O)OC[C@H]1O[C@@H](n2cnc3c(N)ncnc32)[C@H](O)[C@@H]1OP(=O)(O)O [Isobutyryl-CoA] | 254.31 Å² | 252 Å² | 
45 | CCCCCCC(N)C(=O)O (racemic) [DL-2-Aminooctanoic acid] | 141.62 Å² | 147.1 Å² | 
46 | O=C(O)CCCCC1CCSS1 (configuration not stated) [Thioctic acid] |  |  | collision cross section (N2) ([M+H-H2O]+): 133.8 Å²
47 | O=c1c(O)c(-c2ccc(O)c(O)c2)oc2cc(O)cc(O)c12 [Quercetin] | 158.98 Å² | 166.7 Å² | 
48 | C[C@]12CC[C@H](O)CC1=CC[C@@H]1[C@@H]2CC[C@]2(C)C(=O)CC[C@@H]12 [trans-Dehydroandrosterone] | 175.34 Å² |  | collision cross section (N2) ([M+H-H2O]+): 166 Å²
49 | C=CC1=C(C)/C(=C/c2[nH]c(Cc3[nH]c(/C=C4\NC(=O)C(C)=C4C=C)c(C)c3CCC(=O)O)c(CCC(=O)O)c2C)NC1=O [Bilirubin] | 247.18 Å² |  | 
50 | CC(=O)N[C@@H](Cc1ccccc1)C(=O)O [N-Acetyl-L-phenylalanine] | 144.2 Å² |  | collision cross section (N2) ([M+Na]+): 149.8 Å²
51 | COc1ccc2[nH]cc(CC(=O)O)c2c1 [5-Methoxyindoleacetate] |  | 144 Å² | 
52 | O=C(O)CNC(=O)c1ccccc1 [Hippuric acid] | 139.72 Å² |  | 
53 | C[N+](C)(C)C[C@H](O)CC(=O)[O-] [L-Carnitine] |  | 133.1 Å² | 
54 | CCCCCCCCCCCCCCCCCC(=O)O[C@H](CC(=O)[O-])C[N+](C)(C)C [Stearoylcarnitine] |  | 221.1 Å² | 
55 | CC(=O)[C@H]1CC[C@H]2[C@@H]3CCC4=CC(=O)CC[C@]4(C)[C@H]3[C@@H](O)C[C@]12C [11beta-Hydroxyprogesterone] |  | 182.3 Å² | collision cross section (N2) ([M-H2O-H]-): 180.95 Å²
56 | CC(C)(COP(=O)(O)OP(=O)(O)OC[C@H]1O[C@@H](n2cnc3c(N)ncnc32)[C@H](O)[C@@H]1OP(=O)(O)O)[C@@H](O)C(=O)NCCC(=O)NCCS [Coenzyme A] | 241.54 Å² | 240.4 Å² | 
57 | CC(=O)N[C@@H](CCCN)C(=O)O [N2-Acetyl-L-ornithine] |  | 136.9 Å² | 
58 | CCCCCCCCCCCC(=O)O [Dodecanoic acid] | 152.58 Å² |  | 

— the C3SDB collision cross section collection
